# Assay results taken from patent publication US12083082B2, “Methods for treating neurodegenerative disorders” (Alzheon, Inc., priority 2018, dated 2024).
# Values joined by “and” are separate entries in the source; they are usually repeats but may differ in a detail not shown here. Equal entries are not always repeated. “Also recorded” adds a separate entry of the source.
# Experiments:
# [1] = molecular target: T1, recombinant human Aβ42 peptide (Homo sapiens, UniProt P05067); experiment: Ion mobility mass spectrometry (IMS MS) anti-Aβ42 oligomer activity / binding study; assay type: biochemical; parameters: key to Presence of Aβ42 Pentamer / Presence of Aβ42 Hexamer / Presence of Aβ42 Decamer / Presence of Aβ42 Dimer / Presence of Aβ42 Trimer / Presence of Aβ42 Tetramer: Y = yes, presence of oligomer species; N = no presence of oligomer species
# T1 construct: recombinant human Aβ42 peptide; purchased BioLegend 843801
# Procedure: The conditions used for mass spectrometry, using a Waters Synapt G2-S, were as follows: positive polarity in sensitivity mode, capillary=2.5 kV, nebulizer=2 mbar, source temperature=80° C., desolvation temperature=60° C., sample cone setting=35 V, source offset setting=60 V, and mass range=500 to 4000 m/z. These conditions were maintained throughout the study to ensure consistency of the data and to avoid influencing the detection of oligomers due to preferential ionization conditions.
# Samples were directly infused into the mass spectrometer at a flow rate of 10 μL/min using a Protea PM-1000 Syringe Pump and Hamilton 1 mL Syringe. The data acquisition of the amyloid peptide was performed using a Waters Synapt G2-S quadrupole time of flight mass spectrometer (Q-TOF MS) with traveling wave ion mobility (Waters Corp., Milford, MA). The data were acquired using the systems sensitivity mode to allow for the detection of the less abundant oligomers. Samples were infused at room temperature. The IMS MS studies were conducted at Protea, Inc. (Morgantown, WV).
# 1 mg of recombinant human Aβ42 peptide from BioLegend (99% purity, cat #843801) was reconstituted in 200 μL of Fisher Optima LC/MS grade water (cat #W6-1) and vortexed vigorously for 2 minutes to solubilize the peptide creating a 5 mg/mL solution. Samples were then diluted to a final concentration of 22 pmol/μL prior to incubation. The sample mixtures were then incubated at room temperature for 0, 4 and 24 hours. After the acquisition of incubated samples was completed, the raw data were analyzed using the Waters MassLynx v2.4 suite with DriftScover v2.7 to visualize drift times for the peptide.
# Aβ42 species characterization using IMS MS was performed by direct infusion at 22 pmol/μL in water. The peptide was prepared in water to maintain the native state conformation of the peptide and ion mobility data acquisition was performed to detect and characterize the conformational changes of the native state monomer and any oligomers that may have formed during the incubation.
# The data acquisition for Aβ42 peptide was performed using a Waters Synapt G2-S quadrupole time of flight mass spectrometer (Q-TOF MS) with traveling wave ion mobility (Waters Corp., Milford, MA). The data were acquired using the systems sensitivity mode to allow for the detection of the less abundant oligomers. Samples were infused at room temperature as above.
# 1 mg of 3-SPA was reconstituted in 1 mL of Fisher Optima LC/MS grade water (cat #W6-1) and vortexed vigorously for 2 minutes until completely dissolved. The sample was then diluted to create […], and 22,000 pmol/μL solutions to perform a 100-fold, and 1,000-fold molar excess for the binding experiments with Aβ42 peptide.
# 1 mg of recombinant human Aβ42 peptide was reconstituted in 200 μL of Fisher Optima LC/MS grade water and vortexed vigorously to solubilize to a 5 mg/mL solution. Samples were then diluted to their final concentrations prior to incubation. The sample mixtures were incubated at room temperature for 0, 4 and 24 hours, followed by analysis as described above.
# To address the high conformational flexibility of Aβ42 and to characterize its interaction with 3-SPA, we used ion mobility mass spectrometry (IMS), with a quadrupole time of flight mass spectrometer (Q-TOF MS) with traveling wave ion mobility. Resulting effect of modulation of Aβ conformational space is the prevention of oligomer formation. We have found not only concentration dependency but also time-dependency of this anti-Aβ42 oligomeric effect of 3-SPA as indicated in FIG. 3 and FIG. 4. 100- vs 1,000-fold molar excess of 3-SPA over Aβ42 results in a different sub-species profile of inhibition of Aβ42 oligomer formation. The activity is also compared with the same excess dependency of tramiprosate.
# [2] = Brain penetration of oral 3-SPA in male SD rats (brain, CSF, plasma); assay type: in vivo, Sprague-Dawley rats; conditions: oral 30 mg/kg
# Procedure: A separate group of animals was dosed orally at 30 mg/kg and terminal brain, CSF and plasma samples were collected at 1, 2, 6, and 24 hr (3 animals for each time point) for bioanalyses of 3-SPA in brain and CSF, and to estimate brain penetration relative to plasma concentrations. The in-life study was performed at Agilux Laboratories (Worcester, MA) following quality standards in line with Good Laboratory Practice. Bioanalyses of rat plasma, CSF and brain was preformed using LC-MS/MS at Nextcea. Prior to processing rat brains for bioanalysis, the brains were perfused to remove pooled blood. Pharmacokinetic data analyses were conducted using Winnonlin Professional v5.0.1 (Pharsight, Mountain View, CA).
# The plasma concentration of a single dose of 3-SPA, dissolved in saline as a clear solution, administered orally and intravenously to rats at a dose level of 30 mg/kg and 10 mg/kg, respectively, are shown in FIG. 9. Brain, CSF and corresponding plasma levels after a single oral dose of dose of 30 mg/kg of 3-SPA at 1, 2, 6, and 24 hr are shown in FIG. 10. Mean PK curves were used for calculation of pharmacokinetic parameters.
# [3] = 100:1 excess ratio compound:protein
# [4] = 1000:1 excess ratio compound:protein
# T1 sequence (P05067 672-713 limits assumed): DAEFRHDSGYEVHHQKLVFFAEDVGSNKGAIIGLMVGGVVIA
compound,measurement,setting,value
"O=C(O)CCS(=O)(=O)O [3-SPA, 3-sulfopropanoic acid]",Presence of Aβ42 Decamer,[1]; [3],N
same,Presence of Aβ42 Dimer,[1]; [3],Y
same,Presence of Aβ42 Hexamer,[1]; [3],Y
same,Presence of Aβ42 Pentamer,[1]; [3],Y
same,Presence of Aβ42 Tetramer,[1]; [3],Y
same,Presence of Aβ42 Trimer,[1]; [3],Y
same,Presence of Aβ42 Decamer,[1]; [4],N
same,Presence of Aβ42 Dimer,[1]; [4],N
same,Presence of Aβ42 Hexamer,[1]; [4],N
same,Presence of Aβ42 Pentamer,[1]; [4],Y
same,Presence of Aβ42 Tetramer,[1]; [4],N
same,Presence of Aβ42 Trimer,[1]; [4],N
same,Inhibition of formation of Aβ42 oligomers (in words),"[1]; 4 hr incubation, ratio 1:1000","inhibits the formation of oligomers with the exception of dimers, trimers and pentamers; also recorded: Detection of Aβ42 dimers, trimers and pentamers"
same,Inhibition of formation of Aβ42 oligomers (in words),"[1]; 24 hours incubation, 1,000-fold excess",Near complete prevention of formation of Aβ42 oligomers except for pentamers; also recorded: the only oligomeric species not inhibited were pentamers of Aβ42; also recorded: Only pentamers were detected
same,AUC 0-inf_obs,[2]; Brain,33224.4 ng·h/mL
same,AUC 0-t,[2]; Brain,7586.5 ng·h/mL
same,Cmax,[2]; Brain,649.8 ng/mL
same,t½,[2]; Brain,64.07 h
same,AUC 0-inf_obs,[2]; CSF,726.2 ng·h/mL
same,AUC 0-t,[2]; CSF,463.6 ng·h/mL
same,Cmax,[2]; CSF,159.2 ng/mL
same,t½,[2]; CSF,3.56 h
same,AUC 0-inf_obs,[2]; Plasma,30099.2 ng·h/mL
same,AUC 0-t,[2]; Plasma,30001.7 ng·h/mL
same,Cmax,[2]; Plasma,5714.6 ng/mL
same,t½,[2]; Plasma,3.03 h
same,CSF/brain AUC %,[2],6.1%
same,"Brain/Plasma (AUC %), brain penetration",[2]; 30 mg/kg,25% and 25.3%
